Data as given in patent US7332312B2, “Carbonyl reductase, gene thereof and use of the same” (priority 2002, dated 2008).

System: reductase RRG
Assay: Substrate specificity of RRG: reducing activity against various carbonyl compounds
Type: biochemical, Rhodotorula glutinis var. dairenensis IFO 0415
Settings: pH 6.5

Compound | % Activity [%]
CCOC(=O)C(Cl)C(=O)c1ccccc1 (stereo not drawn) [ethyl 2-chloro-3-oxo-3-phenpropionate, ethyl 2-chloro-3-oxo-3-phen propionate] | 34

Same assay, conditions: relative to reducing activity with 2-chloro-1-(3′-chlorophenyl)ethanone taken as 100%; substrate 1 mM, NADPH 0.25 mM, pH 6.5, 30° C.

Compound | % Activity [%]
O=C(c1ccccc1)C(F)(F)F [α,α,α-trifluoroacetophenon] | 83
CC(=O)c1ccc(Cl)cc1 [p-chloroacetophenone] | 5
CCC(=O)c1ccccc1 [propiophenone] | 14
O=C(CO)c1ccccc1 [2-hydroxyacetophenone] | 34
O=C(/C=C/c1ccccc1)c1ccccc1 [trans-calcone] | 22
CCCCC(C)=O [2-hexanone] | 13
CC(=O)CCO [4-hydroxy-2-butanone] | 11
CCOC(=O)C(Cl)C(C)=O (stereo not drawn) [ethyl 2-chloroacetoacetate] | 111
O=CC(O)CO (racemic) [DL-glyceraldehyde] | 1
CCC(=O)CC [diethyl ketone] | 17
O=Cc1ccncc1 [pyridine-4-aldehyde] | 55
COC(=O)C1CCCC1=O (stereo not drawn) [methyl 2-oxocyclopentanecarboxylate, methyl 2-oxocyclopentane carboxylate] | 11
CC(=O)C=O [methyl glyoxal] | 13
CCOC(=O)CC(C)=O [ethyl acetoacetate] | 35
COC(=O)CC(=O)CCl [methyl 4-chloroacetoacetate] | 81
CCCCCC=O [n-hexylaldehyde] | 10
CCOC(=O)C1CCC(=O)C1 (stereo not drawn) [ethyl 3-oxocyclopentanecarboxylate] | 32
CC(=O)CC(C)C [4-methyl-2-pentanone] | 10
CCOC(=O)CC(=O)CN=[N+]=[N-] [ethyl 4-azideacetoacetate] | 11
CC12CCC(C(=O)C1=O)C2(C)C (stereo not drawn) [camphorquinone] | 33
O=CCCc1ccccc1 [3-phenylpropionaldehyde] | 10
CCCCCCC(=O)C(=O)OC [methyl 2-oxooctanoate] | 3
CC(C)=O [acetone] | 11
CCC(C)=O [2-butanone] | 10
CC(=O)CO [hydroxyacetone] | 16

Compound | % Activity [%]
CCC(=O)C(=O)O [2-keto-n-butyric acid] | 7
CCC=O [propionaldehyde] | 4
CCOC(=O)CC(=O)COCc1ccccc1 [ethyl 4-benzyloxyacetoacetate] | 58
CC(=O)CC(=O)OC(C)(C)C [tert-butyl acetoacetate] | 1
CC(=O)c1ccccn1 [2-acetylpyridine] | 60
COc1ccc(C(C)=O)cc1OC [3,4-dimethoxyacetophenone] | 46
CCOC(=O)C(C)C(C)=O (stereo not drawn) [ethyl 2-methylacetoacetate] | 12
O=Cc1cccc(Cl)c1 [m-chlorobenzaldehyde] | 45
O=Cc1ccccc1Cl [o-chlorobenzaldehyde] | 24
O=Cc1ccccc1 [benzaldehyde] | 25
O=CCCCC=O [glutaraldehyde] | 2
CCOC(=O)CC(=O)CCl [ethyl 4-chloroacetoacetate] | 12
CC(=O)c1ccc(F)cc1 [4-fluoroacetophenone] | 30
COC(=O)C(C)=O [methyl pyrucvate] | 208
CC(=O)c1ccncc1 [4-acetylpyridine] | 44
O=Cc1cccc([N+](=O)[O-])c1 [m-nitrobenzaldehyde] | 64
O=Cc1ccc(Cl)cc1 [p-chlorobenzaldehyde] | 11
O=C1COC(=O)C1 [tetrahydrofuran-2,4-dione] | 14
CCOC(=O)CC(=O)COC(C)=O [ethyl 4-acetoxyacetoacetate] | 46
CCCC(C)=O [methyl n-propylketone] | 12
CC(=O)CC(C)=O [acetylacetone] | 23
O=C(CCl)c1cccc(Cl)c1 [2-chloro-1-(3′-chlorophenyl)ethanone] | 100
O=Cc1ccccc1[N+](=O)[O-] [o-nitrobenza1dehyde] | 31
CCOC(=O)CC(=O)CO [ethyl 4-hydroxyacetoacetate] | 22
CC(=O)c1cccc([N+](=O)[O-])c1 [m-nitroacetophenone] | 35

Compound | % Activity [%]
methyl 2-eteneacetoacetate | 5
CCCC=O [n-butylaldhyde] | 20
CC(=O)C(C)=O [diacetyl] | 4
CCOC(=O)C(C)=O [ethly pyruvate] | 247
CCCC(=O)c1ccccc1 [n-butyrophenone] | 8
CCCCCC(C)=O [2-heptanone] | 11
O=C(c1ccccc1)C(O)c1ccccc1 (stereo not drawn) [benzoin] | 9
CC1=CC(=O)CC(C)(C)C1 [isophorone] | 1
CC(=O)c1cccc(O)c1 [m-hydroxyacetophenone] | 16
O=Cc1ccccn1 [2-pyridinecarbaldehyde] | 45
CCOC(=O)CC(=O)CBr [ethyl 4-bromoacetoacetate] | 33
CC1(C)COC(=O)C1=O [dihydro-4,4-dimethyl-furandio] | 238
CC(=O)CCC(=O)O [levulinic acid] | 31
COC(=O)CC(C)=O [methyl acetoacetate] | 14
CC(=O)CC(=O)OCc1ccccc1 [benzyl acetoacetate] | 30
O=C(O)CC(=O)C(=O)O [oxalacetic acid] | 24
CCOC(=O)CC(=O)c1ccccc1 [ethyl benzoylylacetate] | 15
CC(=O)c1cccnc1 [3-acetylpyridine] | 28
O=Cc1ccc([N+](=O)[O-])cc1 [p-nitrobenzaldhyde] | 162
O=C1CCCC1 [cyclopentanone] | 9
O=C1CCN(Cc2ccccc2)C1 [1-benyl-3-pyrolidinone] | 4
CC(=O)C1CC1 [cyclopropyl methyl ketone] | 3
CCCCCCCCOC(=O)CC(=O)CCl [n-octyl 4-chloroacetoacetate] | 72
CCC(=O)Cc1ccccc1 [1-phenyl-2-butanone] | 20
